In patent publication US12194032B2, “Method of treating focal segmental glomerulosclerosis” (ChemoCentryx, Inc., priority 2016, dated 2025):

How the values were obtained:
Assay type in all cases: in vivo
[1] = system: Adriamycin nephropathy female Balb/c mice; test: Adriamycin Nephropathy Model (Example 2); conditions: Adriamycin 7.5 mg/kg i.v. day 0; compound 1 90 mg/kg subcutaneously once daily; candesartan orally once daily; week 1, 2 and 3; vs vehicles
Description: (§1) The remnant kidney and the adryamicin drug-induced models are commonly used rodent models for FSGS (de Mik S M. Et al. Pathophysiology and treatment of focal segmental glomerulosclerosis: the role of animal models. BMC Nephrol. 2013 Apr. 1; 14:74). The 5/6 remnant kidney model is representative of secondary FSGS whereas the Adriamycin nephropathy model is representative of primary FSGS.
The experiment was performed in female Balb/c mice (Jackson Laboratories). The mice were kept on standard chow and had free access to water. 7.5 mg/kg Adriamycin (Selleck Chemicals) or saline (control) was injected in a tail vein in isoflurane-anesthetized animals at day 0. Compound 1 and its vehicle (1% HPMC) were dosed subcutaneously once daily at 90 mg/kg formulated in 1% HPMC. Candesartan and its vehicle (H2O) were dosed orally once daily. Twelve animals were used for each group.
[…] Urinary albumin was measured by ELISA (Bethyl Labs, Montgomery, TX), and the urinary albumin excretion rate (UAER) was calculated as micrograms per 24 hours. Urinary creatinine was measured by mass spectrometry. The albumin to creatinine ratio (ACR) was calculated as micrograms of albumin per milligram of creatinine.

[2] = system: 5/6 remnant kidney 129X1/SvJ mice; test: 5/6 Remnant Kidney Model (Example 1); conditions: 5/6 nephrectomized mice
From the text: as §1
(§2) The 5/6 remnant kidney 129X1/SvJ mice was obtained from Jackson Laboratories. The mice were kept on standard chow and had free access to water. The mice surgery was performed in two stages. Under isoflurane anesthesia, two-thirds of the left kidney mass was dissected. After 7 to 10 days, a right unilateral nephrectomy was performed. Six weeks after the 5/6 nephrectomy, the mice were randomized for the study. Compound 3 and its vehicle were dosed subcutaneously once daily at 100 mg/kg formulated in 1% HPMC. 6 animals were used for each group.
Urine samples were collected at weeks one and two by individually housing the mice in metabolic cages for 18 hours. Urinary albumin was measured by ELISA (Bethyl Labs, Montgomery, TX), and the urinary albumin excretion rate (UAER) was calculated as micrograms per 24 hours. Urinary creatinine was measured by mass spectrometry. The albumin to creatinine ratio (ACR) was calculated as micrograms of albumin per milligram of creatinine. At the end of the experiments (after 2 weeks of treatment), the kidneys were collected, fixed in formalin, embedded in paraffin, and cut into 3-μm-thick sections. Sections were stained for podocytes by immunohistochemistry with Wilms tumor protein 1 antibody (Abcam, Cambridge, MA). Glomerular cross-sectional area and podocyte number were determined in 20-30 glomeruli per mouse. Glomerulus volume and podocyte density were calculated from the immunohistochemistry data using the Weibel method. Mesangial expansion was measured by silver methenamine stain on 2-μm-thick paraffin sections by conventional methods.

[3] = system: 5/6 remnant kidney 129X1/SvJ mice; test: 5/6 Remnant Kidney Model with Combination Treatment (Example 3); conditions: 5/6 nephrectomized mice, compound 3 100 mg/kg subcutaneously once daily, candesartan 5 mg/kg orally once daily
From the text: as §1
as §2, with “After seven” for “After 7”, “to ten” for “to 10”, “performed. Three to six” for “performed. Six”, “the study (n=12 per group).” for “the study.”, “HPMC. […]” for “HPMC. 6 animals were used for each group.”
Urine samples were collected at week one, two and three by individually housing the mice in metabolic cages for 18 hours. Urinary albumin was measured by ELISA (Bethyl Labs, Montgomery, TX), and the urinary albumin excretion rate (UAER) was calculated as micrograms per 24 hours. Urinary creatinine was measured by mass spectrometry. The albumin to creatinine ratio (ACR) was calculated as micrograms of albumin per milligram of creatinine.

[4] = 100 mg/kg subcutaneously once daily, kidneys after 2 weeks of treatment

| SMILES | UACR levels (FIG. 8) [1] | proteinuria (UACR values, FIG. 1) ([2]; 100 mg/kg subcutaneously once daily in 1% HPMC, week 1 and 2, vs vehicle) | number of renal interstitial macrophages (macrophage content as percentage of total area, FIG. 2) [2, 4] | percentage of glomeruli with mesangiolysis (FIG. 6) [2, 4] | podocytes numbers per glomerular cross section (FIG. 4) [2, 4] | UACR values (FIG. 11) ([3]; week 1 and week 2) | UAER values (FIG. 10) ([3]; weeks 1, 2 and 3) |
| --- | --- | --- | --- | --- | --- | --- | --- |
| Cc1cnc(C(=O)c2ccnc3[nH]ccc23)c(NS(=O)(=O)c2ccc(Cl)c(C(F)(F)F)c2)c1 [compound 1] | reduction in UACR levels | – | – | – | – | – | – |
| O=C(c1ncc(Cl)cc1NS(=O)(=O)c1ccc(Cl)c(C(F)(F)F)c1)c1ccnc2[nH]ccc12 [compound 3] | – | reduces the profound proteinuria | reduces the number of renal interstitial macrophages | beneficial effect | increased podocytes numbers | reduction in UACR values | reduction in UAER values |
